Patent US20230219979A1, “PYRAZOLO[1,5-a]PYRIDINE COMPOUND, PREPARATION METHOD THEREFOR AND USE THEREOF” (SHENZHEN ZHONGGE BIOLOGICAL TECHNOLOGY CO., LTD., priority 2019, published 2023)

Legend:
VEGFR2 kinase = VEGFR2 kinase (Homo sapiens, UniProt P35968); experiment: HTRF method for testing the inhibitory activity of compounds against VEGFR2; assay type: biochemical
Ba/F3-KIF5B-RET cell = molecular target: T1, Ba/F3-KIF5B-RET cell (Homo sapiens, UniProt P07949); experiment: CellTiter-Glo luminescence assay, inhibitory activity against Ba/F3-KIF5B-RET cell; assay type: cell-based; conditions: 72 h, read-out: Ba/F3-KIF5B-RET cell activity
T1 construct: fused on or other part: P33176 (Kinesin-1 heavy chain)
T1 sequence (P07949 whole entry, stated change not applied, the tested form may be a part): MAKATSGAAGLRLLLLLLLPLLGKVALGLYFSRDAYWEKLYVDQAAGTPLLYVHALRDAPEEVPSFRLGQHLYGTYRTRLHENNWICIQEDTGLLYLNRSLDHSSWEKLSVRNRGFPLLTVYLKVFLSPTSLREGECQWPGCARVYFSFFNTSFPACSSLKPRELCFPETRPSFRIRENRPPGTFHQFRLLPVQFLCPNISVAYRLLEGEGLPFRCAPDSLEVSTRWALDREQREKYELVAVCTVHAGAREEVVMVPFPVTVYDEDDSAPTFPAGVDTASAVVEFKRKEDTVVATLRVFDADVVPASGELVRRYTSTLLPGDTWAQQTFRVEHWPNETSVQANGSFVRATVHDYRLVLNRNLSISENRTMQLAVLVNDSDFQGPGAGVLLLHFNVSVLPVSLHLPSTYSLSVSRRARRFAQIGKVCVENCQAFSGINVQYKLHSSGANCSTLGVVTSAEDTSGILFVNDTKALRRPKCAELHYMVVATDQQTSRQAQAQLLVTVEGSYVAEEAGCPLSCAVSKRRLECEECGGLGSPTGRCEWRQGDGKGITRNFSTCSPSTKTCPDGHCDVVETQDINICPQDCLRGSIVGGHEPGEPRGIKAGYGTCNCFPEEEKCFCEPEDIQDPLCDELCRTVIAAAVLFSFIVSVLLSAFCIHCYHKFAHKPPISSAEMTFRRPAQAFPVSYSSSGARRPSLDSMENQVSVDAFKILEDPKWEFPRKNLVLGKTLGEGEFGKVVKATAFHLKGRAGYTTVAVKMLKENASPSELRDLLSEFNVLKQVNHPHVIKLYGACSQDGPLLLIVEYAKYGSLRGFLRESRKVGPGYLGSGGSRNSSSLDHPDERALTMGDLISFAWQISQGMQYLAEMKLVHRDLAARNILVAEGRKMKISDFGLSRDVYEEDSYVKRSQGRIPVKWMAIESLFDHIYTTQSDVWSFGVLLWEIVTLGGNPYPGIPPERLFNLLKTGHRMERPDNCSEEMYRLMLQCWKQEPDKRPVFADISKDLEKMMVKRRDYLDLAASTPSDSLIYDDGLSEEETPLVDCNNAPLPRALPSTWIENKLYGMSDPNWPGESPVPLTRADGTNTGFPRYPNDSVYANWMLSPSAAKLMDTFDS
Source text: (C) In Vitro Screening Experiment - CellTiter-Glo Luminescence Assay for Testing The inhibitory activity of compounds against Ba/F3-KIF5B-RET cell
• 1. The mammalian cell expression vector containing human KIF5B-RET cDNA was introduced into Ba/F3 cells using the Neon® transfection system method, and the surviving clones screened by puromycin were subjected to cell growth inhibitory function experiments and Western blotting to verify cell lines with stable and high expression of RET. • 2. Cells were cultured in RPMI 1640 medium containing 10% fetal bovine serum, 1% penicillin-streptomycin, and 2 µg/mL puromycin, and then placed in a 37° C., 5% carbon dioxide cell incubator. • 3. The test compound (5 mM stock) was diluted 2.5 folds to […] with 100% dimethyl sulfoxide; and the compound was diluted into 10 concentrations at an equal ratio of 1:3 in a 384-well dilution plate. • 4. 0.2 µL of the serially diluted compound was added to a 384-well cell culture plate (Corning, 3570) using an Echo 550 pipetting system, 2 replicate wells for each concentration, and the final concentration of dimethyl sulfoxide was 0.5% (v/v). The gradient concentrations of the test compound were 5000, 1666.7, 555.5, 185.18, 61.72, 20.57, 6.858, 2.286, 0.764, 0.254 nM. • 5. 40 µL of Ba/F3-KIF5B-RET cell suspension containing 800 cells was added to each well, and incubated for 72 h in a 5% CO2 cell incubator. • 6. 20 µL of Cell Titer-Glo reagent was added to each well of the cell culture plate, and the culture system was then shaken and mixed thoroughly for 2 min to lyse the cells, the cells were then incubated at room temperature for 30 min, and the […] signal values were then read with an Envision 2104 microplate reader. • 7. By fitting the data with XLFit 5.0 based on the parameters formula, the IC50 value was calculated as: • [formula]

Wild-type RET kinase = Wild-type RET kinase (Homo sapiens, UniProt P07949); experiment: HTRF method for testing the inhibitory activity of compounds against RET; assay type: biochemical; conditions: HTRF; read-out: Wild-type RET kinase
Wild-type RET kinase, sequence (P07949 29-1114): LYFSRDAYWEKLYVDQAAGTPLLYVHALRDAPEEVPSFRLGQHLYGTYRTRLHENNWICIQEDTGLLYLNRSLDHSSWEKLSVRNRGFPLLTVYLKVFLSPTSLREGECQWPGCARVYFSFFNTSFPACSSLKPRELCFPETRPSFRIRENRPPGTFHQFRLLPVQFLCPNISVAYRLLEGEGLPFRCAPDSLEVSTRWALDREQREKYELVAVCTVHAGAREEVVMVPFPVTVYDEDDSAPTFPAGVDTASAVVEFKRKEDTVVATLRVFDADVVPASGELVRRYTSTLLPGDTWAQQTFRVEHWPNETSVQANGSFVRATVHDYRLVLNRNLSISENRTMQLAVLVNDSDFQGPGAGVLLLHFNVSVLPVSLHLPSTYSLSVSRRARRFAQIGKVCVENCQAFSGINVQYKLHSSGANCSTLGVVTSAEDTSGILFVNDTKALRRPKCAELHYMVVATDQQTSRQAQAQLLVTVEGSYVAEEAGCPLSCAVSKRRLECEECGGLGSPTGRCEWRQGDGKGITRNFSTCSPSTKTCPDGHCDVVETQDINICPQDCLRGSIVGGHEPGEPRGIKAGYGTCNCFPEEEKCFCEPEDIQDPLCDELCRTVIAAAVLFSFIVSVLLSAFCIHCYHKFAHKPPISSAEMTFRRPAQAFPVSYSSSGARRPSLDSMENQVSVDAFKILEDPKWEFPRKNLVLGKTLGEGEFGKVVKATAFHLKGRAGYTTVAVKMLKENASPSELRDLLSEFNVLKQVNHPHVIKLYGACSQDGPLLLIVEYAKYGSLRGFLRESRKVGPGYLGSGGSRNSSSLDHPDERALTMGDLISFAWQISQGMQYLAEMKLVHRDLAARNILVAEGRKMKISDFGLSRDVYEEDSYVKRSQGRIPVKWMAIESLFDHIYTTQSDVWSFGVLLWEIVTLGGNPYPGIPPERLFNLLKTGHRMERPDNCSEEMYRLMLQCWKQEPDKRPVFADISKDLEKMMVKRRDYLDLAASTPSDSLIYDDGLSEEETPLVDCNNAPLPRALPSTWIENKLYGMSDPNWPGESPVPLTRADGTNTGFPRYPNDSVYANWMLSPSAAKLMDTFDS

RET G810R kinase = RET G810R kinase (Homo sapiens, UniProt P07949, G810R); experiment: HTRF method for testing the inhibitory activity against RET G810R; assay type: biochemical; conditions: for IC50: HTRF; for inhibitory activity against G810R (in words): mutant strain of RET kinase
RET G810R kinase, sequence (P07949 29-1114 G810R): as the sequence (P07949 29-1114) above, with G782R counted along it

RET G810S kinase = RET G810S kinase (Homo sapiens, UniProt P07949, G810S); experiment: HTRF method for testing the inhibitory activity against RET G810S; assay type: biochemical; conditions: for IC50: HTRF; for inhibitory activity against G810S (in words): mutant strain of RET kinase
RET G810S kinase, sequence (P07949 29-1114 G810S): as the sequence (P07949 29-1114) above, with G782S counted along it

VEGFR2 kinase, sequence (P35968 20-1356): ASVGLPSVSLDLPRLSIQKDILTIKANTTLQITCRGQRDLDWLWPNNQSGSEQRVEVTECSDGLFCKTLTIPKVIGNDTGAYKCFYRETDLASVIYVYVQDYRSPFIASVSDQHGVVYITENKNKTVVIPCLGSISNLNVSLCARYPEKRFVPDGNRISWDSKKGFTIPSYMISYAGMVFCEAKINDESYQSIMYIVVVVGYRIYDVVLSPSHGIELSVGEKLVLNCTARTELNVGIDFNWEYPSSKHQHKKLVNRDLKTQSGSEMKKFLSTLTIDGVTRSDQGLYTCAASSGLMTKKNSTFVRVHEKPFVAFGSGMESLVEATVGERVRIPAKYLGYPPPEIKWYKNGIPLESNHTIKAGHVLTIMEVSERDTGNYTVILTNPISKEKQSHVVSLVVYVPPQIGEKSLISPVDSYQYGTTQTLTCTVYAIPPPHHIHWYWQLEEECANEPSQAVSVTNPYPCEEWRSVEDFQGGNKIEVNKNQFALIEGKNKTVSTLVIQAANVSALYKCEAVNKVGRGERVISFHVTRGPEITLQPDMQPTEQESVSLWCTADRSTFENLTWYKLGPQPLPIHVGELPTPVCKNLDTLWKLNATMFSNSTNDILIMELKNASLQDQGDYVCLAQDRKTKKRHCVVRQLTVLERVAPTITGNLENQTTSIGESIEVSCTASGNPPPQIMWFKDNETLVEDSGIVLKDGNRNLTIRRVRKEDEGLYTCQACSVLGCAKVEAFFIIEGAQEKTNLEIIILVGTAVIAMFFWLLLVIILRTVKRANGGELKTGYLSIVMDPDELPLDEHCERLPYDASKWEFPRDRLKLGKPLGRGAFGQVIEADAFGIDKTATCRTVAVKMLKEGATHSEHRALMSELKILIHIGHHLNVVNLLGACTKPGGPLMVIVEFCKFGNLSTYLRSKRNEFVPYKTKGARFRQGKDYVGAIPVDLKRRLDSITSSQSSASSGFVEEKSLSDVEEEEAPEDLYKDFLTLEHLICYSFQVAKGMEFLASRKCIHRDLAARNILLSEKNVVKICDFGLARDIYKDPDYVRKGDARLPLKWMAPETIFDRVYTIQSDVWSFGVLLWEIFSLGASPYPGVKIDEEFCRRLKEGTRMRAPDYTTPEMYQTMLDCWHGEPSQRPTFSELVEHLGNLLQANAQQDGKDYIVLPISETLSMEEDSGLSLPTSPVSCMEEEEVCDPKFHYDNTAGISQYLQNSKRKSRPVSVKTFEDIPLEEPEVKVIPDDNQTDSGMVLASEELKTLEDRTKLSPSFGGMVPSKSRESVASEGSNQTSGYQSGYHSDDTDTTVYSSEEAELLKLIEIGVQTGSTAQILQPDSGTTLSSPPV

In the case of COc1ccc(CN2C3CC2CN(c2cnc(-c4cc(OCC(C)(C)C#N)cn5ncc(C#N)c45)cn2)C3)cn1 [Compound 39, 6-(2-cyano-2-methylpropoxy)-4-(5-(6-((6-methoxypyridin-3-yl)methyl)-3,6-diazabicyclo[3.1.1]heptan-3-yl)pyrazinpyridin-2-yl)pyrazolo[1,5-a]pyridine-3-carbonitrile], the IC50 (VEGFR2 kinase) is reported as 259 nM, the GI50 (Ba/F3-KIF5B-RET cell) is reported as 15.6 nM and the IC50 (Wild-type RET kinase) is reported as 1.25 nM.
COc1ccc(CN2C3CC2CN(c2cnc(-c4cc(OCC5C[C@H]6CC[C@@H](C5)N6)cn5ncc(C#N)c45)cn2)C3)cn1 (stereo partly drawn) [Compound 40, 6-(((1R, 5S)-8-azabicyclo[3.2.1]oct-3-yl)methoxy)-4-(5-(6-((6-methoxypyridine-3-yl)methyl)-3,6diazabicyclo[3.1.1]heptan-3-yl)pyrazin-2-yl)pyrazolo[1,5-a]pyridine-3-carbonitrile] showed an IC50 (VEGFR2 kinase) of 112 nM, a GI50 (Ba/F3-KIF5B-RET cell) of 208 nM and an IC50 (Wild-type RET kinase) of 0.86 nM.
With CNc1cc(-c2ccc(N3CC4CC(C3)N4Cc3ccc(OC)nc3)nc2)c2c(C#N)cnn2c1 [Compound 47, 4-(6-(6-((6-methoxypyridin-3-yl)methyl)-3,6-diazabicyclo[3.1.1]heptyl-3-yl)pyridin-3-yl)-6-(methylamino)pyrazolo[1,5-a]pyridine-3-carbonitrile] the IC50 (RET G810R kinase) was 8.93 nM, the “inhibitory activity against G810R (in words)” value (RET G810R kinase) was “good inhibitory activity” and the IC50 (RET G810S kinase) was 1.23 nM. For the same compound, the “inhibitory activity against G810S (in words)” value (RET G810S kinase) was “good inhibitory activity”, the IC50 (VEGFR2 kinase) was 33.7 nM and the GI50 (Ba/F3-KIF5B-RET cell) was 1.42 nM. For the same compound, the IC50 (Wild-type RET kinase) was 0.04 nM.
With COc1ccc(CN2C3CC2CN(c2ccc(-c4cc(Br)cn5ncc(C#N)c45)cn2)C3)cn1 [Compound 48] the IC50 (RET G810R kinase) was 63.2 nM, the “inhibitory activity against G810R (in words)” value (RET G810R kinase) was “good inhibitory activity” and the IC50 (RET G810S kinase) was 13 nM. For the same compound, the “inhibitory activity against G810S (in words)” value (RET G810S kinase) was “good inhibitory activity”, the IC50 (VEGFR2 kinase) was 875 nM and the GI50 (Ba/F3-KIF5B-RET cell) was 105 nM. For the same compound, the IC50 (Wild-type RET kinase) was 2.89 nM.
For COc1ccc(CN2C3CC2CN(c2ccc(-c4cc(NCCF)cn5ncc(C#N)c45)cn2)C3)cn1 [Compound 49, 6-((2-fluoroethyl)amino)-4-(6-(6-((6-methoxypyridin-3-yl)methyl)-3,6-diazabicyclo[3.1.1]hept-3-yl)pyridin-3-yl)pyrazolo[1,5-a]pyridine-3-carbonitrile], the IC50 (RET G810R kinase) was 1.85 nM, the “inhibitory activity against G810R (in words)” value (RET G810R kinase) was “good inhibitory activity” and the IC50 (RET G810S kinase) was 0.53 nM. The “inhibitory activity against G810S (in words)” value (RET G810S kinase) was “good inhibitory activity”, the IC50 (VEGFR2 kinase) was 28.4 nM and the GI50 (Ba/F3-KIF5B-RET cell) was 1.52 nM. The IC50 (Wild-type RET kinase) was 0.19 nM.
For COc1ccc(CN2C3CC2CN(c2ccc(-c4cc(NCC(F)F)cn5ncc(C#N)c45)cn2)C3)cn1 [Compound 50], the IC50 (RET G810R kinase) was 5.65 nM, the “inhibitory activity against G810R (in words)” value (RET G810R kinase) was “good inhibitory activity” and the IC50 (RET G810S kinase) was 1.35 nM. The “inhibitory activity against G810S (in words)” value (RET G810S kinase) was “good inhibitory activity”, the IC50 (VEGFR2 kinase) was 59.3 nM and the GI50 (Ba/F3-KIF5B-RET cell) was 5.75 nM. The IC50 (Wild-type RET kinase) was 0.13 nM.
For COc1ccc(CN2C3CC2CN(c2ccc(-c4cc(N5CCCC5)cn5ncc(C#N)c45)cn2)C3)cn1 [Compound 55, 4-(6-(6-((6-methoxypyridin-3-yl)methyl)-3,6-diazabicyclo[3.1.1]heptyl-3-yl)pyridin-3-yl)-6-(pyrrolidin-1-yl)pyrazolo[1,5-a]pyridine-3-carbonitrile], the IC50 (VEGFR2 kinase) was 8.48 nM, the GI50 (Ba/F3-KIF5B-RET cell) was 6.77 nM and the IC50 (Wild-type RET kinase) was 0.49 nM.
COc1ccc(CN2C3CC2CN(c2ccc(-c4cc(NCC(F)(F)F)cn5ncc(C#N)c45)cn2)C3)cn1 [Compound 56, 4-(6-(6-((6-methoxypyridin-3-yl)methyl)-3,6-diazabicyclo[3.1.1]heptan-3-yl)pyridin-3-yl)-6-((2,2,2-trifluoroethyl)amino)pyrazolo[1,5-a]pyridine-3-carbonitrile] was tested, and the IC50 (RET G810R kinase) was 19.3 nM, the “inhibitory activity against G810R (in words)” value (RET G810R kinase) was “good inhibitory activity” and the IC50 (RET G810S kinase) was 4.73 nM. The “inhibitory activity against G810S (in words)” value (RET G810S kinase) was “good inhibitory activity”, the IC50 (VEGFR2 kinase) was 103 nM and the GI50 (Ba/F3-KIF5B-RET cell) was 8.53 nM. The IC50 (Wild-type RET kinase) was 0.2 nM.
CCCNc1cc(-c2ccc(N3CC4CC(C3)N4Cc3ccc(OC)nc3)nc2)c2c(C#N)cnn2c1 [Compound 57, 4-(6-(6-((6-methoxypyridin-3-yl)methyl)-3,6-diazabicyclo[3.1.1]heptan-3-yl)pyridin-3-yl)-6-(propylamino)pyrazolo[1,5-a]pyridine-3-carbonitrile] was tested, and the IC50 (RET G810R kinase) was 10.6 nM, the “inhibitory activity against G810R (in words)” value (RET G810R kinase) was “good inhibitory activity” and the IC50 (RET G810S kinase) was 2.33 nM. The “inhibitory activity against G810S (in words)” value (RET G810S kinase) was “good inhibitory activity”, the IC50 (VEGFR2 kinase) was 31.3 nM and the GI50 (Ba/F3-KIF5B-RET cell) was 1.24 nM. The IC50 (Wild-type RET kinase) was 0.32 nM.
With COc1ccc(CN2C3CC2CN(c2ccc(-c4cc(NCC(=O)N(C)C)cn5ncc(C#N)c45)cn2)C3)cn1 [Compound 59, 2-((3-cyano-4-(6-(6-((6-methoxypyridin-3-yl)methyl)-3,6-diazabicyclo[3.1.1]heptan-3-yl)pyridin-3-yl)pyrazolo[1,5-a]pyridin-6-yl)amino)-N,N-dimethylacetamide] the IC50 (VEGFR2 kinase) was 93.8 nM, the GI50 (Ba/F3-KIF5B-RET cell) was 11.9 nM and the IC50 (Wild-type RET kinase) was 1.69 nM.
For COc1ccc(CN2C3CC2CN(c2ccc(-c4cc(N(C)CCN(C)C)cn5ncc(C#N)c45)cn2)C3)cn1 [Compound 61], the IC50 (VEGFR2 kinase) was 482 nM, the GI50 (Ba/F3-KIF5B-RET cell) was 60.4 nM and the IC50 (Wild-type RET kinase) was 1.1 nM.
CCNc1cc(-c2ccc(N3CC4CC(C3)N4Cc3ccc(OC)nc3)nc2)c2c(C#N)cnn2c1 [Compound 62, 6-(ethylamino)-4-(6-(6-((6-methoxypyridin-3-yl)methyl)-3,6-diazabicyclo[3.1.1]heptan-3-yl)pyridin-3-yl)pyrazolo[1,5-a]pyridine-3-carbonitrile] was tested, and the IC50 (RET G810R kinase) was 6.22 nM, the “inhibitory activity against G810R (in words)” value (RET G810R kinase) was “good inhibitory activity” and the IC50 (RET G810S kinase) was 0.8 nM. For the same compound, the “inhibitory activity against G810S (in words)” value (RET G810S kinase) was “good inhibitory activity”, the IC50 (VEGFR2 kinase) was 20 nM and the GI50 (Ba/F3-KIF5B-RET cell) was 1.82 nM. For the same compound, the IC50 (Wild-type RET kinase) was 0.21 nM.
In the case of COc1ccc(CN2C3CC2CN(c2ccc(-c4cc(NCC(C)(C)O)cn5ncc(C#N)c45)cn2)C3)cn1 [Compound 63, 6-((2-hydroxy-2-methylpropyl)amino)-4-(6-(6-((6-methoxypyridin-3-yl)methyl)-3,6-diazabicyclo[3.1.1]heptan-3-yl)pyridin-3-yl)pyrazolo[1,5-a]pyridine-3-carbonitrile], the IC50 (RET G810R kinase) is reported as 76.9 nM, the “inhibitory activity against G810R (in words)” value (RET G810R kinase) is reported as “good inhibitory activity” and the IC50 (RET G810S kinase) is reported as 15 nM. For the same compound, the “inhibitory activity against G810S (in words)” value (RET G810S kinase) was “good inhibitory activity”, the IC50 (VEGFR2 kinase) was 65.2 nM and the GI50 (Ba/F3-KIF5B-RET cell) was 3.39 nM. It also gave an IC50 (Wild-type RET kinase) of 0.47 nM.
With COc1ccc(CN2C3CC2CN(c2cnc(-c4cc(N5CCOCC5)cn5ncc(C#N)c45)cn2)C3)cn1 [Compound 66, 4-(5-(6-((6-methoxypyridin-3-yl)methyl)-3,6-diazabicyclo[3.1.1]heptyl-3-yl)pyrazin-2-yl)-6-morpholinopyrazolo[1,5-a]pyridine-3-carbonitrile] the IC50 (RET G810R kinase) was 173 nM, the “inhibitory activity against G810R (in words)” value (RET G810R kinase) was “good inhibitory activity” and the IC50 (RET G810S kinase) was 26.7 nM. For the same compound, the “inhibitory activity against G810S (in words)” value (RET G810S kinase) was “good inhibitory activity”, the IC50 (VEGFR2 kinase) was 318 nM and the GI50 (Ba/F3-KIF5B-RET cell) was 6.21 nM. The IC50 (Wild-type RET kinase) was 0.82 nM.
In the case of COc1ccc(CN2C3CC2CN(c2ccc(-c4cc(NCC(C)C)cn5ncc(C#N)c45)cn2)C3)cn1 [Compound 67, 6-(isobutylamino)-4-(6-(6-((6-methoxypyridin-3-yl)methyl)-3,6-diazabicyclo[3.1.1]hept-3-yl)pyridin-3-yl)pyrazolo[1,5-a]pyridine-3-carbonitrile], the IC50 (RET G810R kinase) is reported as 90.9 nM, the “inhibitory activity against G810R (in words)” value (RET G810R kinase) is reported as “good inhibitory activity” and the IC50 (RET G810S kinase) is reported as 11 nM. For the same compound, the “inhibitory activity against G810S (in words)” value (RET G810S kinase) was “good inhibitory activity”, the IC50 (VEGFR2 kinase) was 45.4 nM and the GI50 (Ba/F3-KIF5B-RET cell) was 2.19 nM. The IC50 (Wild-type RET kinase) was 0.15 nM.
With CCCCNc1cc(-c2ccc(N3CC4CC(C3)N4Cc3ccc(OC)nc3)nc2)c2c(C#N)cnn2c1 [Compound 68, 6-(butylamino)-4-(6-(6-((6-methoxypyridin-3-yl)methyl)-3,6-diazabicyclo[3.1.1]hept-3-yl)pyridin-3-yl)pyrazolo[1,5-a]pyridine-3-carbonitrile] the IC50 (RET G810R kinase) was 49.1 nM, the “inhibitory activity against G810R (in words)” value (RET G810R kinase) was “good inhibitory activity” and the IC50 (RET G810S kinase) was 6.18 nM. The “inhibitory activity against G810S (in words)” value (RET G810S kinase) was “good inhibitory activity”, the IC50 (VEGFR2 kinase) was 59.8 nM and the GI50 (Ba/F3-KIF5B-RET cell) was 4.19 nM. For the same compound, the IC50 (Wild-type RET kinase) was 0.37 nM.
